Experimental data: patent US11149020B2, “MAP kinase modulators and uses thereof” (The Trustees of Columbia University in the City of New York, priority 2013, dated 2021)
Like-named read-outs stand apart in the source and are kept apart here.

Assays:
APP/PS1 mice [1] = assay: RAWM in APP/PS1 mice; conditions: 2.5 mg/kg, daily, p.o., from 2 months of age
APP/PS1 mice [2] = assay: Fear conditioning (contextual and cued) in APP/PS1 mice; conditions: 2.5 mg/kg, daily, p.o., from 2 months of age
human p38α MAPK = human p38α MAPK (Homo sapiens (Human), UniProt Q16539); assay: Kinase assay, concentration dependent inhibition of p38α MAPK; assay type: biochemical; conditions: for Ki: kinetic analyses
APP/PS1 mice [3] = assay: LTP in APP/PS1 mice; assay type: in vivo, mouse; conditions: 2.5 mg/kg, daily, p.o., from 2 months until 3-4 months of age
CK-1δ = CK-1δ (Homo sapiens (Human), UniProt P48730); assay: Kinase assay, concentration dependent inhibition of CK-1δ
[4] = system: murine microglial BV-2 cell line; assay: cells; assay type: cell-based; conditions: for IL-1β production with diverse TLR ligands: BV-2 cells, TLR2, TLR4, TLR7/8, TLR9 ligands
[5] = system: LPS-induced IL-1β in brain cortex; assay: In vivo LPS-induced brain cortex IL-1β; set-up: species or system mouse; conditions: oral administration, 20 mg/Kg, 6 hrs after LPS
[6] = system: Aβ42-treated hippocampal slices; assay: LTP in hippocampal slices treated with oligomeric Aβ42; set-up: species or system mouse; conditions: 10 μM, 200 nM Aβ42
Aβ42-infused mice [7] = assay: 2-day radial arm water maze (RAWM) in Aβ42-infused mice; assay type: in vivo, mouse; conditions: 5 mg/Kg, i.p.
panel of 158 GPCRs = assay: Millipore GPCR Profiler cell-based functional screen (calcium flux FLIPR)
Source text: Compounds were screened in vivo using a standard dose escalation screen in mice coupled with clinical observation and testing based on the SHIRPA mouse phenotype assay paradigm (Mammalian Genome 8, 711-719 SHIRPA (1997); herein incorporated by reference in its entirety). To obtain insight into the potential for off-target activity with the largest known family of small molecule drug targets, G-protein coupled receptors (GPCRs), a cell-based functional screen of the final title compounds was done. The Millipore® GPCR Profiler screen employs the ChemiScreen GPCR stable cell line technology used for real-time calcium flux FLIPR assays on a panel of 158 GPCRs. The NCBI Entrez identifier for each GPCR is provided at the vendor site (www.millipore.com). Follow-up validation of any initial hits as being true positives or negatives was done as described above for protein kinases by testing the concentration dependence of any cellular effects.

Aβ42-infused mice [8] = assay: Contextual fear conditioning in Aβ42-infused mice; assay type: in vivo, mouse; conditions: 5 mg/Kg, i.p.
>291 protein kinases = assay: Millipore Profiler large-scale kinome screen

Chain of human p38α MAPK (Q16539 whole entry): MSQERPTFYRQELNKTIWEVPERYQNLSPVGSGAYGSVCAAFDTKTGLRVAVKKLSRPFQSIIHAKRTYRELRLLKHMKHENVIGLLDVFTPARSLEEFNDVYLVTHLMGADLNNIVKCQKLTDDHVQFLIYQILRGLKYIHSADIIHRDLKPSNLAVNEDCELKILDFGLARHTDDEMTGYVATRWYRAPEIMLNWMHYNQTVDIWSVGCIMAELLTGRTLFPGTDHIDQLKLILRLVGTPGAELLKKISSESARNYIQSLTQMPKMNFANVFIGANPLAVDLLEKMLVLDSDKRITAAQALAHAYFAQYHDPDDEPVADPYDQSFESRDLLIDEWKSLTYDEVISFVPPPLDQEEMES
Chain of CK-1δ (P48730 whole entry): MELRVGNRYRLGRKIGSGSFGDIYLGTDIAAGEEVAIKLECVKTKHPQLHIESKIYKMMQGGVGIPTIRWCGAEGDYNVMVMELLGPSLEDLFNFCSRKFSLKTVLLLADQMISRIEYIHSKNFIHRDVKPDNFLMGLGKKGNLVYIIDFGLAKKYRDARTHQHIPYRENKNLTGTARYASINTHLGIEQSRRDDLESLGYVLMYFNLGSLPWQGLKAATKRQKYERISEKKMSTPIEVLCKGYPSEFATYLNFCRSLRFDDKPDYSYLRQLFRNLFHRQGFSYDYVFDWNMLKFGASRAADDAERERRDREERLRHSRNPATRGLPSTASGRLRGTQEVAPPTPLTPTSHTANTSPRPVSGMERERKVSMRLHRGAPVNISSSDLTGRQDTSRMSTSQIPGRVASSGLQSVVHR

| SMILES | IC50 (human p38α MAPK) [nM] | Ki (human p38α MAPK) [nM] | IC50 (CK-1δ; read-out: Ck1δ IC50) [nM] | further results |
| --- | --- | --- | --- | --- |
| c1ccc2c(-c3nnc(C4CC4)cc3-c3ccncc3)cccc2c1 [7 (MW-077), 6-cyclopropyl-3-(naphthalen-1-yl)-4-(pyridin-4-yl)pyridazine] | 419 | 186 | > 10000 | spatial/reference memory defect (RAWM) in APP/PS1 mice (APP/PS1 mice [1]): rescue defects in spatial memory; contextual fear memory defect in APP/PS1 mice (APP/PS1 mice [2]): rescue the defect in contextual fear learning; LTP defect in APP/PS1 mice (APP/PS1 mice [3]): rescue defects in LTP |
| c1cc(-c2nnc(N3CCNCC3)cc2-c2ccncc2)c2cc[nH]c2c1 [30 (MW-126), 4-(6-(piperazin-1-yl)-4-(pyridin-4-yl)pyridazin-3-yl)-1H-indole] | 753 | – | 2630 | – |
| CN(C)c1cc(-c2ccncc2)c(-c2cccc3ccccc23)nn1 [MW-181 (1)] | – | – | – | IL-1β production with diverse TLR ligands [4]: inhibition of increased cytokine production by glia in response to LPS (IC50=820±30 nM) and other TLR ligands; LPS-induced IL-1β levels in brain cortex [5]: in vivo suppression of increased brain levels of IL-1β after oral administration |
| CCN(CC)c1cc(-c2ccncc2)c(-c2cccc3ccccc23)nn1 [23 (MW-033), N,N-diethyl-6-(naphthalen-1-yl)-5-(pyridin-4-yl)pyridazin-3-amine] | 162 | – | > 10000 | – |
| CN1CCN(c2cc(-c3ccncc3F)c(-c3ccc4ccccc4c3)nn2)CC1 [37 (MW-149), 4-(3-fluoropyridin-4-yl)-6-(4-methylpiperazin-1-yl)-3-(naphthalen-2-yl)pyridazine] | 235 | – | 4620 | – |
| c1ccc2c(-c3nnc(N4CCCCC4)cc3-c3ccncc3)cccc2c1 [12 (MW-124), 3-(naphthalen-1-yl)-6-(piperidin-1-yl)-4-(pyridin-4-yl)pyridazine] | 191 | – | > 10000 | – |
| CN(C)c1cc(-c2ccncc2)c(-c2cccc3cnccc23)nn1 [20 (MW-082), 6-(isoquinolin-5-yl)-N,N-dimethyl-5-(pyridin-4-yl)pyridazin-3-amine] | > 3200 | – | > 10000 | – |
| c1ccc2cc(-c3nnc(C4CC4)cc3-c3ccncc3)ccc2c1 [9 (MW-125), 6-Cyclopropyl-4-(pyridin-4-yl)-3-(naphthalen-2-yl)pyridazine] | 412 | 127 | > 10000 | spatial/reference memory defect (RAWM) in APP/PS1 mice (APP/PS1 mice [1]): rescue defects in spatial memory; contextual fear memory defect in APP/PS1 mice (APP/PS1 mice [2]): rescue the defect in contextual fear learning; LTP defect in APP/PS1 mice (APP/PS1 mice [3]): rescue defects in LTP |
| CNc1cc(-c2ccncc2)c(-c2ccc3ccccc3c2)nn1 [16 (MW-200), N-methyl-6-(naphthalen-2-yl)-5-(pyridin-4-yl)pyridazin-3-amine] | 175 | 100 | 4980 | – |
| CN1CCN(c2cc(-c3ccncc3)c(-c3cccc4[nH]ccc34)nn2)CC1 [29 (MW-108), 4-(6-(4-methylpiperazin-1-yl)-4-(pyridin-4-yl)pyridazin-3-yl)-1H-indole] | 3070 | – | 6130 | – |
| CC(C)Nc1cc(-c2ccncc2)c(-c2cccc3ccccc23)nn1 [25 (MW-031), N-isopropyl-6-(naphthalen-1-yl)-5-(pyridin-4-yl)pyridazin-3-amine] | 162 | – | > 10000 | – |
| CN1CCN(c2cc(-c3ccncc3)c(-c3cccc4c(F)cccc34)nn2)CC1 [55 (MW-063), 3-(5-fluoronaphthalen-1-yl)-6-(4-methylpiperazin-1-yl)-4-(pyridin-4-yl)pyridazine] | 526 | – | 32500 | – |
| CCN1CCN(c2cc(-c3ccncc3)c(-c3ccc4ccccc4c3)nn2)CC1 [62 (MW-026), 6-(4-ethylpiperazin-1-yl)-3-(naphthalen-2-yl)-4-(pyridin-4-yl)pyridazine] | 520 | – | 4990 | – |
| c1ccc2c(-c3nnc(NC4CC4)cc3-c3ccncc3)cccc2c1 [13 (MW-107), N-cyclopropyl-6-(naphthalen-1-yl)-5-(pyridin-4-yl)pyridazin-3-amine] | 264 | 91 | > 10000 | – |
| CN(C)c1cc(-c2ccncc2)c(-c2ccc3ccccc3c2)nn1 [MW-108 (2)] | – | – | – | LTP deficit in Aβ42-treated slices [6]: ameliorated the Aβ-induced electrophysiological deficit; IL-1β production with diverse TLR ligands [4]: also seen in BV-2 cells stimulated with diverse TLR ligands; IC50 ([4]; Mus musculus, LPS-stimulated BV-2 cells, 18 hrs, read-out: IC50 using inhibition of IL-1β overproduction as end point): 610 ± 20 nM; reference memory deficit (RAWM) in Aβ42-infused mice (Aβ42-infused mice [7]): rescued the memory defects; GPCR screen result (panel of 158 GPCRs): negative; LPS-induced IL-1β levels in brain cortex [5]: restored IL-1β levels in the brain cortex back towards control; contextual fear memory deficit in Aβ42-infused mice (Aβ42-infused mice [8]): prevented by MW-108 (2) administration; large scale kinase screen result (>291 protein kinases): negative |
| CN1CCC(c2cc(-c3ccncc3)c(-c3ccc4ccccc4c3)nn2)CC1 [36 (MW-164), 6-(1-methylpiperidin-4-yl)-3-(naphthalen-2-yl)-4-(pyridin-4-yl)pyridazine] | 224 | 101 | – | IC50 (CK-1δ): 11200 nM |
| CN(C)c1cnc(-c2cccc3ccccc23)c(-c2ccncc2)n1 [44 (MW-064), N,N-dimethyl-5-(naphthalen-1-yl)-6-(pyridin-4-yl)pyrazin-2-amine] | 456 | 343 | > 10000 | – |
| CN(C)c1cc(-c2ccncc2)c(-c2ccc(F)c3ccccc23)nn1 [17 (MW-078), 6-(4-fluoronaphthalen-1-yl)-N,N-dimethyl-5-(pyridin-4-yl)pyridazin-3-amine] | 1780 | – | > 10000 | – |
